Results: patent publication US9914730B2, “Azaquinazoline inhibitors of Atypical protein Kinase C” (Ignyta, Inc., priority 2012, dated 2018)

What follows are molecules tested against T1, full-length human PKCι (Homo sapiens, UniProt P41743) (assay: PKCι IC50 IMAP assay, full-length PKCι at 150 μM ATP). Conditions: read-out: IC50 in IMAP assay against full length PKCi at 150 μM ATP.
T1 construct: Recombinant, full-length human PKCι expressed in Sf21 insect cells is also commercially available; purchased; host or cells: Sf21 insect cells
T1 sequence (P41743 1-596): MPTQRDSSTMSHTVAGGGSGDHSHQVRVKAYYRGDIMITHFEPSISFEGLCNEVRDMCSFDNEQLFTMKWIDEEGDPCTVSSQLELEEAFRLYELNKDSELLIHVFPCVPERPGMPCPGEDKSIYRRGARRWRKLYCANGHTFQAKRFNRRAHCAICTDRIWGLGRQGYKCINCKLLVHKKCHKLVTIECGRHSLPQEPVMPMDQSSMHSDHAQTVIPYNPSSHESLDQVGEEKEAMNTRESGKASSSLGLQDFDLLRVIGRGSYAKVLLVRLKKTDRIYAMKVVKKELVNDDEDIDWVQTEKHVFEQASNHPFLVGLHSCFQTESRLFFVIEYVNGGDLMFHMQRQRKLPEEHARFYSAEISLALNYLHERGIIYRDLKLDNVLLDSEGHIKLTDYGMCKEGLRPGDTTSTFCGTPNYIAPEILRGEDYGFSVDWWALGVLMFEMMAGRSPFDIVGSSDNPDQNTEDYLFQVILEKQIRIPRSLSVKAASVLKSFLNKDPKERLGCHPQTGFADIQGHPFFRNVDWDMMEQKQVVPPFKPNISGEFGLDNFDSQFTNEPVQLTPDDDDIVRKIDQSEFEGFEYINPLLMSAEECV
Assay type: biochemical
Outline: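 Full-length hPKCι (Sf21) ~15 pM; 5FAM-peptide 100 nM; ATP 150 μM (5× KM^APP); tris pH7.5/MgCl2/EGTA/DTT/Triton, 4% DMSO; 60 min RT; IMAP stop, 2 h; FP 485/530 nm; IC50 from % inhibition curves.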

Row | SMILES | IC50 [nM]
1 | C[C@@H]1CN(c2nc(-c3ccnc(Nc4nc(F)c(F)cc4F)c3)nc3cncc(C4CC4)c23)C[C@H](C)N1 [Example 828, {4-[5-Cyclopropyl-4-((3R,5S)-3,5-dimethyl-piperazin-1-yl)-pyrido[3,4-d]pyrimidin-2-yl]-pyridin-2-yl}-(3,5,6-trifluoro-pyridin-2-yl)-amine] | < 100
2 | Fc1cccc(F)c1Nc1cc(-c2nc(N3CCNC4(CC4)C3)c3c(C4CC4)cncc3n2)ccn1 [Example 829, {4-[5-Cyclopropyl-4-(4,7-diaza-spiro[2.5]oct-7-yl)-pyrido[3,4-d]pyrimidin-2-yl]-pyridin-2-yl}-(2,6-difluoro-phenyl)-amine] | < 100
3 | C[C@H]1CN(c2nc(-c3ccnc(Nc4nc(F)c(F)cc4F)c3)nc3cncc(C4CC4)c23)CCN1 [Example 830, {4-[5-Cyclopropyl-4-((S)-3-methyl-piperazin-1-yl)-pyrido[3,4-d]pyrimidin-2-yl]-pyridin-2-yl}-(3,5,6-trifluoro-pyridin-2-yl)-amine] | 1000 to 10000
4 | c1cc(-c2nc(N3CCNCC3)c3c(C4CC4)cncc3n2)cc(Nc2nc3cc(C4CC4)ccn3n2)n1 [Example 831, [4-(5-Cyclopropyl-4-piperazin-1-yl-pyrido[3,4-d]pyrimidin-2-yl)-pyridin-2-yl]-(7-cyclopropyl-[1,2,4]triazolo[1,5-a]pyridin-2-yl)-amine] | < 100
5 | Cn1ccc(Nc2cc(-c3nc(N4CCNC(C)(C)C4)c4c(C5CC5)cncc4n3)ccn2)n1 [Example 832, {4-[5-Cyclopropyl-4-(3,3-dimethyl-piperazin-1-yl)-pyrido[3,4-d]pyrimidin-2-yl]-pyridin-2-yl}-(1-methyl-1H-pyrazol-3-yl)-amine] | < 100
6 | CN(c1nc(-c2ccnc(Nc3c(F)cccc3F)c2)nc2cncc(C3CC3)c12)C1CCNCC1 [Example 833, {5-Cyclopropyl-2-[2-(2,6-difluoro-phenylamino)-pyridin-4-yl]-pyrido[3,4-d]pyrimidin-4-yl}-methyl-piperidin-4-yl-amine] | < 100
7 | C[C@@H](Nc1cc(-c2nc(N3CCNC(C)(C)C3)c3c(C4CC4)cncc3n2)ccn1)C1CCCCC1 [Example 835, ((R)-1-Cyclohexyl-ethyl)-{4-[5-cyclopropyl-4-(3,3-dimethyl-piperazin-1-yl)-pyrido[3,4-d]pyrimidin-2-yl]-pyridin-2-yl}-amine] | < 100
8 | Fc1cc(F)nc(Nc2cc(-c3nc(N4CCNCC4)c4c(C5CC5)cncc4n3)ccn2)c1 [Example 836, [4-(5-Cyclopropyl-4-piperazin-1-yl-pyrido[3,4-d]pyrimidin-2-yl)-pyridin-2-yl]-(4,6-difluoro-pyridin-2-yl)-amine] | < 100
9 | Fc1cccc(F)c1Nc1cc(-c2nc(NC3CCNC3)c3c(C4CC4)cncc3n2)ccn1 (stereo not drawn) [Example 837, {5-Cyclopropyl-2-[2-(2,6-difluoro-phenylamino)-pyridin-4-yl]-pyrido[3,4-d]pyrimidin-4-yl}-pyrrolidin-3-yl-amine] | < 100
10 | CC1(C)CN(c2nc(-c3ccnc(Nc4nc(F)ccc4F)c3)nc3cncc(C4CC4)c23)CCN1 [Example 838, {4-[5-Cyclopropyl-4-(3,3-dimethyl-piperazin-1-yl)-pyrido[3,4-d]pyrimidin-2-yl]-pyridin-2-yl}-(3,6-difluoro-pyridin-2-yl)-amine] | < 100
11 | CC1(C)CN(c2nc(-c3ccnc(Nc4ncccc4F)c3)nc3cncc(C4CC4)c23)CCN1 [Example 840, {4-[5-Cyclopropyl-4-(3,3-dimethyl-piperazin-1-yl)-pyrido[3,4-d]pyrimidin-2-yl]-pyridin-2-yl}-(3-fluoro-pyridin-2-yl)-amine] | < 100
12 | CNC(=O)c1ccc(Nc2cc(-c3nc(N4CCNCC4)c4c(C5CC5)cncc4n3)ccn2)cc1 [Example 841, -[4-(5-Cyclopropyl-4-piperazin-1-yl-pyrido[3,4-d]pyrimidin-2-yl)-pyridin-2-ylamino]-N-methyl-benzamide] | < 100
13 | Fc1cccc(F)c1Nc1cc(-c2nc(NC3CCCNC3)c3c(C4CC4)cncc3n2)ccn1 (stereo not drawn) [Example 842, {5-Cyclopropyl-2-[2-(2,6-difluoro-phenylamino)-pyridin-4-yl]-pyrido[3,4-d]pyrimidin-4-yl}-piperidin-3-yl-amine] | < 100
14 | C[C@@H]1CN(c2nc(-c3ccnc(Nc4c(F)cccc4F)c3)nc3cncc(C4CC4)c23)C[C@H](C)N1 [Example 843, {4-[5-Cyclopropyl-4-((3R,5S)-3,5-dimethyl-piperazin-1-yl)-pyrido[3,4-d]pyrimidin-2-yl]-pyridin-2-yl}-(2,6-difluoro-phenyl)-amine] | < 100
15 | NC(=O)c1ccc(Nc2cc(-c3nc(N4CCNCC4)c4c(C5CC5)cncc4n3)ccn2)nc1 [Example 844, 6-[4-(5-Cyclopropyl-4-piperazin-1-yl-pyrido[3,4-d]pyrimidin-2-yl)-pyridin-2-ylamino]-nicotinamide] | < 100
16 | CC1(C)CN(c2nc(-c3ccnc(Nc4nc(F)cc(F)c4F)c3)nc3cncc(C4CC4)c23)CCN1 [Example 845, {4-[5-Cyclopropyl-4-(3,3-dimethyl-piperazin-1-yl)-pyrido[3,4-d]pyrimidin-2-yl]-pyridin-2-yl}-(3,4,6-trifluoro-pyridin-2-yl)-amine] | < 100

Now from value to molecule:

Row | IC50 [nM] | SMILES
17 | < 100 | OC1CCN(c2nc(-c3ccnc(Nc4cccc(N5CCOCC5)c4)c3)nc3cncc(C4CC4)c23)CC1 [Example 834, 1-{5-Cyclopropyl-2-[2-(3-morpholin-4-yl-phenylamino)-pyridin-4-yl]-pyrido[3,4-d]pyrimidin-4-yl}-piperidin-4-ol]
18 | < 100 | C[C@H]1CN(c2nc(-c3ccnc(Nc4ccc(C(F)(F)F)cn4)c3)nc3cncc(C4CC4)c23)CCN1 [Example 839, {4-[5-Cyclopropyl-4-((S)-3-methyl-piperazin-1-yl)-pyrido[3,4-d]pyrimidin-2-yl]-pyridin-2-yl}-(5-trifluoromethyl-pyridin-2-yl)-amine]
19 | < 100 | c1cc(C2CC2)c2nc(Nc3cc(-c4nc(N5CCNCC5)c5c(C6CC6)cncc5n4)ccn3)nn2c1 [Example 846, [4-(5-Cyclopropyl-4-piperazin-1-yl-pyrido[3,4-d]pyrimidin-2-yl)-pyridin-2-yl]-(8-cyclopropyl-[1,2,4]triazolo[1,5-a]pyridin-2-yl)-amine]
20 | 1000 to 10000 | c1ccc(C[C@H]2CN(c3nc(N4CCOCC4)nc4cnccc34)CCN2)cc1 [Example 1000, 4-((S)-3-Benzyl-piperazin-1-yl)-2-morpholin-4-yl-pyrido[3,4-d]pyrimidine]
21 | 1000 to 10000 | c1ccc(CC2CN(c3nc(N[C@@H]4CCNC4)c4ccncc4n3)CCO2)cc1 (stereo partly drawn) [Example 1001, [2-(2-Benzyl-morpholin-4-yl)-pyrido[3,4-d]pyrimidin-4-yl]-(R)-pyrrolidin-3-yl-amine]
22 | < 100 | COc1cncc2nc(N3CCOCC3)nc(NC[C@@H](N)Cc3ccccc3)c12 [Example 1002, (S)-N^1-(5-Methoxy-2-morpholin-4-yl-pyrido[3,4-d]pyrimidin-4-yl)-3-phenyl-propane-1,2-diamine]
23 | 100 to 1000 | COc1cncc2nc(N3CCOCC3)nc(N3CCNCC3)c12 [Example 1003, 5-Methoxy-2-morpholin-4-yl-4-piperazin-1-yl-pyrido[3,4-d]pyrimidine]
24 | 1000 to 10000 | COc1cncc2nc(N3CCOC(COc4ccccc4)C3)nc(N3CCNCC3)c12 (stereo not drawn) [Example 1004, 5-Methoxy-2-(2-phenoxymethyl-morpholin-4-yl)-4-piperazin-1-yl-pyrido[3,4-d]pyrimidine]
25 | 100 to 1000 | COc1cncc2nc(N3CCOCC3)nc(N3CCN[C@@H](CO)C3)c12 [Example 1005, [(R)-4-(5-Methoxy-2-morpholin-4-yl-pyrido[3,4-d]pyrimidin-4-yl)-piperazin-2-yl]-methanol]
26 | 100 to 1000 | COc1cncc2nc(N3CCOCC3)nc(N3CCN[C@@H](COc4ccccc4)C3)c12 [Example 1006, 5-Methoxy-2-morpholin-4-yl-4-((R)-3-phenoxymethyl-piperazin-1-yl)-pyrido[3,4-d]pyrimidine]
27 | 1000 to 10000 | COc1cncc2nc(N3CCOCC3)nc(N3CCC[C@H](Nc4ccccc4)C3)c12 [Example 1007, [(S)-1-(5-Methoxy-2-morpholin-4-yl-pyrido[3,4-d]pyrimidin-4-yl)-piperidin-3-yl]-phenyl-amine]
28 | 100 to 1000 | COc1cncc2nc(N3CCOCC3)nc(N3CCN[C@@H](COc4ccccc4F)C3)c12 [Example 1008, 4-[(R)-3-(2-Fluoro-phenoxymethyl)-piperazin-1-yl]-5-methoxy-2-morpholin-4-yl-pyrido[3,4-d]pyrimidine]
29 | 1000 to 10000 | COC[C@H]1CN(c2nc(N3CCOCC3)nc3cncc(OC)c23)CCN1 [Example 1009, 5-Methoxy-4-((R)-3-methoxymethyl-piperazin-1-yl)-2-morpholin-4-yl-pyrido[3,4-d]pyrimidine]
30 | 100 to 1000 | COc1cncc2nc(N3CCOCC3)nc(N3CCN[C@@H](COc4ccc(F)cc4)C3)c12 [Example 1010, 4-[(R)-3-(4-Fluoro-phenoxymethyl)-piperazin-1-yl]-5-methoxy-2-morpholin-4-yl-pyrido[3,4-d]pyrimidine]
